Patent publication US20190064129A1, “Systems And Methods To Determine Body Drug Concentration From An Oral Fluid” (Sterling Healthcare Opco, LLC, priority 2013, published 2019)

Columns and labels:
[1] = Drug pharmacokinetic parameters referenced in literature; type: in vivo; conditions: drug clearance/Vd
Protocol: Do=Original dosage taken Vd=Volume of distribution of drug (referenced in literature) times the kg body weight of donor C=Plasma drug concentration Ka=Absorption constant of drug (referenced in literature) Kel=Elimination constant of drug (referenced in literature) F=Bioavailability of drug (referenced in literature) t=Elapsed time between dosage and specimen collection
Each donor's drug clearance rate is determined by multiplying the drugs clearance rate (referenced in literature) by the donor's weight (provided).
Likewise, each donor's volume of distribution (DVd) is calculated by multiplying the drug volume of distribution (Vd) (referenced in literature) by the donor's weight (provided).
[formula] • Css max=Steady state maximum concentration (ng/mL) • F=Fractional bioavailability • k=Fractional rate constant (drug clearance/Vd) • t=Dose frequency (hr) • DVd=Donor volume of distribution (reference Eq. 2)
[formula] • Do=Original dose taken (mg) • DVd=Volume of distribution of donor (mL) (reference Eq. 2) • C=Plasma drug concentration (mg/mL) • Ka=Absorption constant of drug (referenced in literature) • Kel=Elimination constant of drug (referenced in literature) • F=Fractional bioavailability of drug (referenced in literature) • t=Elapsed time between dosage and specimen collection (fir)

[2] = referenced in literature, cited from earlier work; for Kel: elimination constant
[3] = Oral fluid plasma equivalent calculation; type: in vivo, human
Text: (§1) Each donor provides simultaneous serum and oral fluid samples. The measured serum drug concentration is the LC-MS/MS response ratio of drug to internal standard determined from the individual's provided serum sample. The measured oral fluid drug concentration ratio is the LC-MS/MS response ratio of drug to internal standard determined from the individual's provided oral fluid sample. The oral fluid plasma equivalent is derived from the individual's measured oral fluid drug concentration, salivary pH, as well as various drug parameters referenced in literature.
[formula] • S=Saliva drug concentration (ng/mL) • P=Plasma drug concentration (ng/mL) • pHs=pH of saliva (to be determined at the time of collection) • pHp=pH of plasma (assumed to be 7.4) • pKa=Dissociation constant of a drug (referenced in literature) • fp=Free fraction of drug in plasma (referenced in literature) • fs=Free fraction of drug in saliva (negligible; assumed to be 1)
Once the S/P ratio for a drug is calculated using Eq. 5 or Eq. 6, oral fluid plasma equivalent is determined by […] the calculated S/P by the measured oral fluid drug concentration determined by LC/MS-MS quantitation, ultimately eliminating the necessity of directly analyzing blood samples to determine donor compliance.

plasma proteins = conditions: free fraction in plasma, referenced in literature; cited from earlier work
[4] = LC-MS/MS quantitation of drug in donor oral fluid (saliva); type: in vivo, human
Text: With reference now to FIG. 1, an exemplary methodology 100 for collecting oral fluid will be described. First, the donor (sometimes referred to as subject, patient, person, or the like) is positioned to allow retrieval of the oral fluid sample, step 102. Next, an oral fluid collection device is placed in the donor's mouth, step 104. The collection device in one exemplary embodiment may be an absorbent swab placed under the tongue. One particularly useful collection device that has been developed is shown and described in FIG. 6. In this exemplary embodiment, the oral fluid collection device collects about 1 mL of neat oral fluid from the donor. Generally, the term about or approximately in the present application means within an acceptable tolerance, such as, for example, ±10% or the like. Volumetric collection is required for quantitative analysis when analyzed from a buffer solution. Oral fluid may be absorbed by the collection device by allowing saliva to move up the stem of a collection device via capillary action, step 106. When a sufficient amount of oral fluid is collected, the collection device provides indicia that the required collection amount has been collected, step 108. The indicia indicating the required volume is collected may be by a color change on a collection adequacy indicator or the like. Alternatively, an alpha/numeric display may be provided or an audio alert, such as a beep. Determining salivary pH is completed next or substantially at the same time as the required volume is collected, step 110. The pH of the oral fluid may be determined by a pH sensitive pigment or by other means including, for example, a sensor or the like. The pH indicia may be combined or separate from the indicia for volume and may include the same or different indicators. For example, the volume of the sample may be provided by a color strip whereas the pH may be provided by an audio. […] The pH will then be recorded or otherwise maintained for later use, step 112. In this exemplary embodiment, the donor will provide a sample by placing the collector swab under his or her tongue until the indicator changes color. The swab is then placed in 3 mL of oral fluid extraction buffer that promotes stabilization of the drug, preventing bacterial growth, and facilitates efficient extraction of the drugs and/or metabolites from the adsorbent swab, as is further explained below, step 114. Specimens may be aliquoted for analysis, and any remaining sample may be transferred to long-term storage at, for example, a storage temperature of between about −20 to about 0° C. The collected oral fluid may be referred to as a sample or a specimen interchangeably herein.
Specimens may undergo a sample preparation step in advance of providing the sample to the drug concentration analysis engine, which involves extracting the analyte(s) of interest from biological matrices. This process serves to eliminate any biological material that could potentially affect analytical results. Samples are first treated to disrupt any drug matrix interactions (protein binding, conjugation) and then adjusted to a specific pH with a buffer. Analytes are then extracted from the remaining matrix using solid phase extraction module 206, which may be comprised of cartridges that are mixed-mode cationic exchange columns. This technique uses the specific binding of ionized drug molecules to the extraction cartridge packing material resulting in strong analyte retention within the column. A series of aqueous and organic wash steps may be used to assist in removing unwanted compounds and matrix components from the sample. Target analytes are then eluted from the solid phase extraction module 206, collected, and analyzed by identification module 208 that may be, for example, a liquid chromatography tandem mass spectrometry (LC/MS-MS) device, although other analysis devices are possible. […]

[5] = LC-MS/MS quantitation of drug in donor serum/plasma; type: in vivo, human
Text: Specimens may undergo a sample preparation step in advance of providing the sample to the drug concentration analysis engine, which involves extracting the analyte(s) of interest from biological matrices. This process serves to eliminate any biological material that could potentially affect analytical results. Samples are first treated to disrupt any drug matrix interactions (protein binding, conjugation) and then adjusted to a specific pH with a buffer. Analytes are then extracted from the remaining matrix using solid phase extraction module 206, which may be comprised of cartridges that are mixed-mode cationic exchange columns. This technique uses the specific binding of ionized drug molecules to the extraction cartridge packing material resulting in strong analyte retention within the column. A series of aqueous and organic wash steps may be used to assist in removing unwanted compounds and matrix components from the sample. Target analytes are then eluted from the solid phase extraction module 206, collected, and analyzed by identification module 208 that may be, for example, a liquid chromatography tandem mass spectrometry (LC/MS-MS) device, although other analysis devices are possible.
In this exemplary embodiment, the specimens are analyzed by the identification module 208 that is a LC/MS-MS device, which allows for accurate and precise analyte identification and quantitation. This analytical technique uses a chromatographic system to separate all of the sample components into discrete peaks and sequentially identifies each compound through mass spectral identification. The chromatographic system is composed of a stationary phase of hydrophobic character (for example, octadecylsilane) and a mobile phase of varying polarity (for example, methanol, water). Specimens are injected into the chromatograph and pumped through the system by flow of the mobile phase. Separation is brought about by differential interactions with the stationary phase based on physical and chemical properties of the individual analytes. The end result is a separation of all of the sample components into discrete bands. As each component elutes from the liquid chromatograph it enters the mass spectrometer. The mass spectrometer is able to first determine an analytes specific molecular weight, called a precursor ion, and subsequently fragment the precursor ion into smaller fragments called product ions. The precursor ion and generated product ions are a specific marker of every analyte of interest. No two compounds will generate completely identical mass spectra. This allows for the identification module 208 to conclusively identify specimen components. Additionally, when specimens are analyzed alongside a series of standards of known concentration, a calibration curve can be generated and quantitative values of identified drugs can be determined.
as §1

[6] = Donor 0182, salivary pH 5.5, dose 5 mg every 6 hr, weight 68.554 kg
[7] = Donor 0383, salivary pH 5.8, dose 10 mg every 4 hr, weight 68.10 kg
[8] = Donor 0602, salivary pH 5.5, dose 5 mg every 12 hr, weight 163.44 kg
[9] = Donor 0442, salivary pH 5.8, dose 100 mg every 8 hr, weight 89.890 kg
[10] = Donor 0604, salivary pH 5.5, dose 50 mg every 8 hr, weight 81.720 kg
[11] = Donor 0673, salivary pH 6.8, dose 50 mg every 6 hr, weight 105.782 kg

## COc1ccc2c3c1O[C@H]1C(=O)CC[C@H]4[C@@H](C2)N(C)CC[C@]314 [Hydrocodone]
[1]
  Fractional Rate Constant; “k”: 0.132 h⁻¹
[2]; absorption constant
  Ka: 2.8 h⁻¹
[2]
  Kel: 0.141 h⁻¹
  Clearance: 8.82 mL/min/kg
  Fractional Bioavailability: 0.7
[3]; Donor 0409, salivary pH 6, dose 5 mg every 6 hr, weight 67.646 kg
  Hydrocodone Oral Fluid Plasma Equivalent: 20.5 ng/mL
[3]; Donor 0476, salivary pH 7.2, 5.833 hr after last dose
  Oral Fluid Plasma Equivalent: 4.5 ng/mL (reference Eq. 8)
[3]; Donor 0704, salivary pH 6.6, dose 10 mg every 12 hr, weight 147.55 kg
  Hydrocodone Oral Fluid Plasma Equivalent: 60.5 ng/mL
[3]; Donor 0897, salivary pH 7, dose 10 mg every 4 hr, weight 83.99 kg
  Hydrocodone Oral Fluid Plasma Equivalent: 10.1 ng/mL

## COc1ccc2c3c1O[C@H]1C(=O)CC[C@@]4(O)[C@@H](C2)N(C)CC[C@]314 [Oxycodone]
Plasma proteins
  Unbound Fraction (fp): 0.55
[4]; [6]
  Measured Saliva Oxycodone Concentration: 306.4 ng/mL
[4]; [7]
  Measured Saliva Oxycodone Concentration: 230.2 ng/mL
[4]; [8]
  Measured Saliva Oxycodone Concentration: 978.2 ng/mL
[4]; human, oral fluid (saliva), po, 1 mg, Donor 0565, salivary pH 6.4, weight 118.040 kg, 1.333 hr after last dose, read-out: Measured Oral Fluid Concentration
  concentration at 1.333 hr: 217 ng/mL
[5]; [6]
  Measured Plasma Oxycodone Concentration: 7.9 ng/mL
[5]; [7]
  Measured Plasma Oxycodone Concentration: 8.4 ng/mL
[5]; [8]
  Measured Plasma Oxycodone Concentration: 16.7 ng/mL
[5]; human, plasma, 1 mg, Donor 0565, weight 118.040 kg, 1.383 hr after last dose
  concentration at 1.383 hr: 33.7 ng/mL
[5]; human, plasma, 7.5 mg, Donor 0476, weight 84.898 kg, 6.050 hr after last dose, read-out: Measured Plasma Concentration
  concentration at 6.05 hr: 3.2 ng/mL
[1]
  Fractional Rate Constant; “k”: 0.372 h⁻¹
[2]
  Kel: 0.174 h⁻¹
  Clearance: 12.4 mL/min/kg
  Fractional Bioavailability: 0.735
[3]; [6]
  Oxycodone Oral Fluid Plasma Equivalent: 7.5 ng/mL
[3]; [7]
  Oxycodone Oral Fluid Plasma Equivalent: 11.3 ng/mL
[3]; Donor 0565, salivary pH 6.4, 1.333 hr after last dose
  Oral Fluid Plasma Equivalent (Calculated Plasma Concentration): 42.0 ng/mL (reference Eq. 8)
[3]; [8]
  Oxycodone Oral Fluid Plasma Equivalent: 24.1 ng/mL
[3]; human, plasma (equivalent calculated from oral fluid), po, 1 mg, Donor 0565, salivary pH 6.4, 1.333 hr after last dose
  concentration at 1.333 hr: 42 ng/mL

## COc1cccc(C2(O)CCCCC2CN(C)C)c1 (stereo not drawn) [Tramadol]
Plasma proteins
  Unbound Fraction (fp): 0.80
[4]; [9]
  Measured Saliva Tramadol Concentration: 1302.5 ng/mL
[4]; [10]
  Measured Saliva Tramadol Concentration: 29926.5 ng/mL
[4]; [11]
  Measured Saliva Tramadol Concentration: 375.6 ng/mL
[5]; [9]
  Measured Plasma Tramadol Concentration: 70.4 ng/mL
[5]; [10]
  Measured Plasma Tramadol Concentration: 376.6 ng/mL
[5]; [11]
  Measured Plasma Tramadol Concentration: 104.1 ng/mL
[1]
  Fractional Rate Constant; “k”: 0.178 h⁻¹
[2]
  Clearance: 8 mL/min/kg
  Fractional Bioavailability: 0.725
  Volume of Distribution: 2.7 L/kg
[3]; [9]
  Tramadol Oral Fluid Plasma Equivalent: 41.2 ng/mL
[3]; [10]
  Tramadol Oral Fluid Plasma Equivalent: 475.5 ng/mL
[3]; [11]
  Tramadol Oral Fluid Plasma Equivalent: 118.7 ng/mL
